Laboratory results: patent US9085607B2, “ACH-0142684 sodium salt polymorph, composition including the same, and method of manufacture thereof” (Achillion Pharmaceuticals Inc., priority 2013, dated 2015)
Entries after “also recorded” stand apart in the source; their conditions may differ.

What was measured:
Type in all cases: physicochemical
[1] = Solubility in water after temperature cycling between 40° C. and 5° C.; details: thermodynamic from solid, cycling between 40° C. and 5° C. for 2 days
Description: (§1) The solubility of ACH-0142684 sodium salt was determined at room temperature using the following procedure. The input material (˜10 mg) was weighed into each of 12 vials, followed by addition of a solvent in multiple aliquots between 50μL to 10-mL at room temperature. Samples were visually inspected for complete dissolution after each solvent addition. The solubility of crystalline ACH-0142684 sodium salt is summarized in TABLE 1, which provides a solubility assessment of amorphous API in 12 solvents. The solubility of API-0142684 in water after temperature cycling between 40° C. and 5° C. for 2 days is ˜50 mg/ml.

[2] = Solubility assessment at room temperature by solvent aliquot addition and visual inspection; details: thermodynamic from solid
Description: as §1

[3] = Solubility in screen solvents derived from loading in solvent and dissolution; details: organic solvent or mixture, thermodynamic from solid
Text: They were selected based on a diverse range of properties including dielectric constants, boiling points, and H-bonding that are important to crystallization and crystal-form discovery. The values in TABLE 2 are derived from ACH-0142684 loading in solvent and dissolution. The symbol † indicates the solubility value is found in TABLE 1.

[4] = Vacuum oven drying and re-analysis by PXRD for form change
Description: PXRD diffractograms were acquired using either a Bruker D8 Discovery diffractometer with a HI-STAR GADDS detector or PANalytical X′Pert Pro diffractometer on Si zero-background wafers. All diffractograms were collected using Cu Kα (45 kV/40 mA) radiation and a step size of 0.02° 2θ unless noted otherwise.
A sample of Polymorph A was dried in a vacuum oven at 55° C. overnight with a small flow of nitrogen. FIG. 1 is a graph showing the results of X-ray powder diffraction analysis of pre-dried (lower trace) and post-dried (upper trace) Polymorph A sample. FIG. 2 is a graph showing the results of differential scanning calorimetry overlay of a pre-dried (lower trace) and post-dried (upper trace) Polymorph A sample. FIG. 3 is a graph showing the results of thermogravimetric analysis of the Form A polymorph.
A small amount of Polymorph B was dried in a vacuum oven at 50° C. for 16 hours and the sample was re-analyzed by PXRD to observe if there were any form changes.

[5] = Competitive ripening study between Polymorphs A and G; details: slurry in 2-propanol, room temperature, sample isolated after 48 hours
Description: A competitive ripening study was conducted between Polymorphs A and G at room temperature to determine their relative stabilities. Approximately 5 mg of Polymorphs A and G were added to a 2-mL HPLC vial containing 0.5 mL of 2-propanol. The suspension was stirred at room temperature for two days. Aliquots of the slurry were filtered after 20 and 48 hours. The isolated solids were analyzed by PXRD to determine any form conversion.

[6] = Crystallization screening (temperature cycling, cooling, evaporation, vapor diffusion), form stability; details: 48 solvents/mixtures
Description: Crystallization experiments were conducted in 48 solvents and aqueous mixtures using the following three crystallization modes:
Temperature-cycled ripening of API slurries between 5-40° C. for 48 hours;
Cooling of saturated solutions prepared at RT to 5° C. (24 hours);
Slow evaporation of saturated solutions at RT.In addition, 10 vapor diffusion experiments were also conducted (Table 4) at RT. These solvent systems were selected based on API solubility, and the miscibility and boiling points of solvents and anti-solvents.
All solid outputs from the screen were isolated and analyzed by FT-Raman spectroscopy and/or PXRD. The samples were then sorted into polymorphs based on Raman spectral match. Representative samples from each of the polymorphs were further analyzed by additional techniques (PXRD, DSC, TGA-IR, PLM, etc.) as appropriate and as sample quantity permitted.
Characterization data and more detailed discussion of the different crystal forms are summarized in the following sections. In TABLES 3 and 4, A, B, C, D, or E, etc. indicates the respective crystalline polymorph obtained. “Amorphous” indicates an amorphous solid was obtained, (-) indicates the experiment was not performed, and a blank space indicates no solid was obtained. The screening study led to one hydrated form (Polymorph A) and multiple solvated forms (Polymorph s B-E). […]

SMILES: COc1ccc2c(O[C@@H]3C[C@H]4C(=O)N[C@]5(C(=O)[N-]S(=O)(=O)C6CC6)C[C@H]5/C=C\CCCCC[C@H](CC(=O)N5CCCC(F)(F)C5)C(=O)N4C3)cc(-c3nc(C(C)C)cs3)nc2c1C.[Na+] [ACH-0142684 sodium salt]
- solubility at 2 days [1]: ~50 mg/mL
- solubility ([2]; organic solvent or mixture, ACN): 1 to 1.2 mg/mL
- solubility ([2]; organic solvent or mixture, DCM): 49 to 98 mg/mL
- solubility ([2]; organic solvent or mixture, DMSO): 97 to 129 mg/mL
- solubility ([2]; organic solvent or mixture, EtOAc): < 1.02 mg/mL
- solubility ([2]; organic solvent or mixture, IPA): 1.1 to 1.3 mg/mL
- solubility ([2]; organic solvent or mixture, MTBE): < 0.93 mg/mL
- solubility ([2]; organic solvent or mixture, MeOH): 92 to 123 mg/mL
- solubility ([2]; organic solvent or mixture, TFE): 100 to 133 mg/mL
- solubility ([2]; organic solvent or mixture, THF): 9.2 to 18.4 mg/mL
- solubility ([2]; organic solvent or mixture, Toluene): < 1.04 mg/mL
- solubility ([2]; organic solvent or mixture, acetone): 5.7 to 14 mg/mL
- solubility ([2]; Water): < 0.99 mg/mL

SMILES: COc1ccc2c(O[C@@H]3C[C@H]4C(=O)N[C@]5(C(=O)NS(=O)(=O)C6CC6)C[C@H]5/C=C\CCCCC[C@H](CC(=O)N5CCCC(F)(F)C5)C(=O)N4C3)cc(-c3nc(C(C)C)cs3)nc2c1C [ACH-0142684]
- solubility ([3]; 1,4-Dioxane): < 50 mg/mL
- solubility ([3]; 1-Butanol): < 50 mg/mL
- solubility ([3]; 1-Methoxy-2-propanol): > 80 mg/mL
- solubility ([3]; 1-propanol): < 50 mg/mL
- solubility ([3]; 2-Butanone): < 50 mg/mL
- solubility ([3]; 2-Methoxyethyl ether): < 90 mg/mL
- solubility ([3]; 2-methoxyethanol): > 93 mg/mL
- solubility ([3]; 2-propanol with 20 vol % water, 2-propanol: 20 vol % Water): < 95 mg/mL
- solubility ([3]; 2-propanol: 5 vol % Water): < 50 mg/mL
- solubility ([3]; 2-propanol: 10 vol %): < 50 mg/mL
- solubility ([3]; 4-Methyl-2-pentanone): < 50 mg/mL
- solubility ([3]; Acetone: 5 vol % Water): < 50 mg/mL
- solubility ([3]; Acetone: 10 vol % Water): < 99 mg/mL
- solubility ([3]; Acetonitrile: 5 vol % Water): < 50 mg/mL
- solubility ([3]; Acetonitrile: 10 vol %): < 50 mg/mL
- solubility ([3]; Chlorobenzene): < 50 mg/mL
- solubility ([3]; Chloroform): > 153 mg/mL
- solubility ([3]; Cyclohexane): < 50 mg/mL
- solubility ([3]; Cyclohexanone): > 87 mg/mL
- solubility ([3]; DMF): > 93 mg/mL
- solubility ([3]; Dimethyl Carbonate): < 50 mg/mL
- solubility ([3]; Dioxane: 10 vol % Water): > 93 mg/mL
- solubility ([3]; EtOAc:pentane (1:1)): < 50 mg/mL
- solubility ([3]; EtOAc:pentane (1:4)): < 50 mg/mL
- solubility ([3]; EtOAc:pentane (1:10)): < 50 mg/mL
- solubility ([3]; EtOH): < 72 mg/mL
- solubility ([3]; Isopropyl acetate): < 50 mg/mL
- solubility ([3]; Isopropyl ether): < 50 mg/mL
- solubility ([3]; MeOAc): < 50 mg/mL
- solubility ([3]; Methanol: 5 vol % Water): > 177 mg/mL
- solubility ([3]; Methanol: 10 vol % Water): > 85 mg/mL
- solubility ([3]; Pentane): < 50 mg/mL
- solubility ([3]; THF: 5 vol % Water): > 85 mg/mL
- solubility ([3]; THF: 10 vol % Water): > 107 mg/mL
- solubility ([3]; acetone with 20 vol % water, Acetone: 20 vol % Water): < 96 mg/mL
- solubility ([3]; nitromethane): < 50 mg/mL

SMILES: COc1ccc2c(O[C@@H]3C[C@H]4C(=O)N[C@]5(C(=O)[N-]S(=O)(=O)C6CC6)C[C@H]5/C=C\CCCCC[C@H](CC(=O)N5CCCC(F)(F)C5)C(=O)N4C3)cc(-c3nc(C(C)C)cs3)nc2c1C.[Na+] [Polymorph A]
- Form stability on drying (PXRD of dried sample) ([4]; vacuum oven at 55° C. overnight, small flow of nitrogen): does not show any change in form or crystallinity
- Relative stability of Polymorphs A and G (PXRD of isolated solids) [5]: the more stable form at room temperature
- Form stability indicated by crystallization screen outcome [6]: the most stable form at the crystallization conditions studied; also recorded: stable form at/around room temperature

SMILES: COc1ccc2c(O[C@@H]3C[C@H]4C(=O)N[C@]5(C(=O)[N-]S(=O)(=O)C6CC6)C[C@H]5/C=C\CCCCC[C@H](CC(=O)N5CCCC(F)(F)C5)C(=O)N4C3)cc(-c3nc(C(C)C)cs3)nc2c1C.[Na+] [Polymorph B]
- Form stability on drying (PXRD of dried sample) ([4]; vacuum oven at 50° C. for 16 hours): does not show any change in form but the peaks appear to be broader
